Assay results taken from patent US10093650B2, “Tetrazolone-substituted dihydropyridinone MGAT2 inhibitors” (BRISTOL-MYERS SQUIBB COMPANY, priority 2014, dated 2018).

Target: human MGAT-2 (Homo sapiens (Human), UniProt Q3SYC2)
Assay: MGAT LCMS Assay (human MGAT2)
Type: biochemical
Details: human MGAT-2 membranes expressed in Sf9 cells; 100 μM 2-oleoylglycerol, 15 μM oleoyl-coenzyme A; LC/MS readout; read-out: h-MGAT LCMS IC50
Description: The MGAT enzyme reactions were performed in Corning FALCON® 96-well polypropylene plates, in a total volume of 60 μL of 50 mM potassium phosphate buffer pH 7.4, containing a final concentration of 100 μM 2-oleoylglycerol, 15 μM oleoyl-coenzyme A and […] human or mouse MGAT-2 or […] rat recombinant MGAT-2 membranes expressed in Sf9 cells. Assay plates were run through a fully automated robotics system and shaken for 5 seconds every minute for a total 10 minutes. The reactions were then quenched with 120 μL of ice cold methanol containing 1 μg/mL 1,2-distearoyl-rac-glycerol as the internal standard. Plates were shaken for 2 minutes and spun down to remove protein precipitation. After the spin, samples were transferred to LC/MS compatible PCR plates. For LC/MS analysis, a ThermoFisher Surveyor pump, utilizing a Waters SYMMETRY® C8, 50×2.1 mm column, was used for the chromatography of enzyme products. The buffer system consists of 0.1% formic acid in water with a mobile phase consisting 0.1% formic acid in methanol. The shallow gradient is 90-100% mobile phase in 0.2 min with a total run time of 2.3 min. The first 0.5 minutes of each injection was diverted to waste to eliminate the presence of Phosphate buffer in the enzymatic reaction. The column was run at 0.6 mL/min and a temperature of 65° C. Mass spectrometry analysis of the samples was performed on a ThermoFisher Quantum Triple quad utilizing APCI (+) as the mode of ionization. Data was acquired in Single Ion Monitoring (SIM) mode analyzing Diolein=m/z 603.6 (PRODUCT) and 1,2-distearoyl-rac-glycerol (IS)=m/z 607.6. The ratio of Diolein to internal standard (Peak Area Ratio) is utilized to calculate IC50 values.
The exemplified Examples disclosed below were tested in the MGAT2 in vitro assays described above and were found having MGAT2 inhibitory activity. Table 1 below lists human MGAT2 IC50 values measured for the following examples.

Sequence of human MGAT-2 (Q3SYC2 whole entry): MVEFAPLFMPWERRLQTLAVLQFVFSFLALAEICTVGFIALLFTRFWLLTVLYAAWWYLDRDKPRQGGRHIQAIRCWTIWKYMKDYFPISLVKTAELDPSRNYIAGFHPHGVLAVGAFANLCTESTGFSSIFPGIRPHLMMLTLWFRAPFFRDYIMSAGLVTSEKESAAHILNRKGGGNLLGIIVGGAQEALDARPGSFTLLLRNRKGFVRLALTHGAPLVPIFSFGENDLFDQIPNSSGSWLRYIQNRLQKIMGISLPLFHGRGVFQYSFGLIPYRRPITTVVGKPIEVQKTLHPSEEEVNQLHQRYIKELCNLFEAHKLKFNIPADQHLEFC

Row | Compound | IC50 [nM]
1 | O=C1N[C@@](c2ccc(OCCCC(F)(F)F)cc2F)(C(F)(F)F)CC(c2ccn(C3CCC3)n2)=C1n1nn[nH]c1=O [Example 8] | 30
2 | CC(C)n1ccc(C2=C(n3nn[nH]c3=O)C(=O)N[C@@](c3ccc(CCCCC(F)(F)F)cc3F)(C(F)(F)F)C2)n1 [Example 10] | 36
3 | O=C1N[C@@](c2ccc(CCCCC(F)(F)F)cc2F)(C(F)(F)F)CC(c2ccn(CC3CC3)n2)=C1n1nn[nH]c1=O [Example 11] | 9
4 | CCc1ccc(C2=C(n3nn[nH]c3=O)C(=O)N[C@H](c3ccc(OCCCC(F)(F)F)cc3Cl)C2)s1 [Example 24] | 36
5 | CCn1ccc(C2=C(n3nn[nH]c3=O)C(=O)N[C@@](c3ccc(CCCCC(F)(F)F)cc3F)(C(F)(F)F)C2)n1 [Example 13] | 84
6 | O=C1N[C@@](c2cnn(CCCCCCC(F)(F)F)c2)(C(F)(F)F)CC(c2ccc3c(c2)CCCC3)=C1n1nn[nH]c1=O [Example 17] | 5
7 | CC(C)Cn1ccc(C2=C(n3nn[nH]c3=O)C(=O)N[C@@](c3ccc(CCCCC(F)(F)F)cc3F)(C(F)(F)F)C2)n1 [Example 12] | 34
8 | O=C1N[C@@](c2ccc(CCCCC(F)(F)F)cc2)(C(F)(F)F)CC(c2ccn(CC3CC3)n2)=C1n1nn[nH]c1=O [Example 20] | 3
9 | Cc1ccc(C2=C(n3nn[nH]c3=O)C(=O)N[C@@](c3ccc(OCCCC(F)(F)F)cc3)(C(F)(F)F)C2)cc1 [Example 1, (S)-3-(5-Oxo-4,5-dihydro-1H-tetrazol-1-yl)-4-(p-tolyl)-6-(4-(4,4,4-trifluorobutoxy)phenyl)-6-(trifluoromethyl)-5,6-dihydropyridin-2(1H)-one] | 27
10 | O=C1N[C@@](c2ccc(OCCCC(F)(F)F)cc2F)(C(F)(F)F)CC(c2ccn(CC3CC3)n2)=C1n1nn[nH]c1=O [Example 14] | 5

Further lines, results first:

Row | IC50 [nM] | Compound
11 | 8 | CC(=O)c1ccc(C2=C(n3nn[nH]c3=O)C(=O)N[C@@](c3ccc(OCCCC(F)(F)F)cc3)(C(F)(F)F)C2)s1 [Example 18]
12 | 173 | O=C1N[C@@](c2ccc(OCCCC(F)(F)F)cc2F)(C(F)(F)F)CC(c2ccn(C3CC3)n2)=C1n1nn[nH]c1=O [Example 7]
13 | 137 | CC(C)n1ccc(C2=C(n3nn[nH]c3=O)C(=O)N[C@@](c3ccc(OCCCC(F)(F)F)cc3F)(C(F)(F)F)C2)n1 [Example 6]
14 | 10 | O=C1N[C@@](c2ccc(OCCCC(F)(F)F)cc2F)(C(F)(F)F)CC(c2ccc(C(F)F)cc2)=C1n1nn[nH]c1=O [Example 21]
15 | 71 | COc1ccc(C2=C(n3nn[nH]c3=O)C(=O)N[C@@](c3ccc(OCCCCCC(F)(F)F)cc3)(C(F)(F)F)C2)cc1 [Example 5]
16 | 17 | O=C1N[C@@](c2ccc(OCCCCCC(F)(F)F)cc2)(C(F)(F)F)CC(c2ccc(OC(F)F)cc2)=C1n1nn[nH]c1=O [Example 4]
17 | 60 | CCc1ccc(C2=C(n3nn[nH]c3=O)C(=O)N[C@@](c3ccc(OCCCC(F)(F)F)cc3)(C(F)(F)F)C2)s1 [Example 23]
18 | 108 | CCn1ccc(C2=C(n3nn[nH]c3=O)C(=O)N[C@@](c3ccc(OCCCC(F)(F)F)cc3F)(C(F)(F)F)C2)n1 [Example 9]
19 | 145 | CC(C)Cn1ccc(C2=C(n3nn[nH]c3=O)C(=O)N[C@@](c3ccc(OCCCC(F)(F)F)cc3F)(C(F)(F)F)C2)n1 [Example 15]
20 | 340 | COc1ccc(C2=C(n3nn[nH]c3=O)C(=O)N[C@@](c3ccc(OCCCC(F)(F)F)cc3)(C(F)(F)F)C2)cc1 [Example 3]
21 | 10 | CC(O)c1ccc(C2=C(n3nn[nH]c3=O)C(=O)N[C@@](c3ccc(OCCCC(F)(F)F)cc3)(C(F)(F)F)C2)s1 (stereo partly shown) [Example 19]
22 | 5 | Cc1ccc(C2=C(n3nn[nH]c3=O)C(=O)N[C@@](c3ccc(OCCCCCC(F)(F)F)cc3)(C(F)(F)F)C2)cc1 [Example 2]
